Source: patent EP0009325A1, “Erythritol cointaining anti-caries compositions” (PFIZER INC., priority 1978, dated 1980)
Like-named read-outs stand apart in the source and are kept apart here.

Columns and labels:
[1] = tested on: Streptococcus mutans strain GS-5; assay: Growth of S. mutans GS-5 in nutrient medium (Klett optical density, doubling time, final pH); assay type: cell-based; settings: 0.7% concentration; 37°C; columns 1-3 of Table I
Procedure: (§1) All compounds used in the test were in 0.7% concentration. The same concentrations were used to determine acid production in a salivary system. Streptococcus mutans strain GS-5, a human cariogenic strain, was used in all cases except the salivary test system in which the endogenous flora was used.
Klett tubes containing a tryticase-soy-yeast- cysteine nutrient and fitted with septum caps werg flushed with nitrogen gas and preincubated 30 minutes at 37°C using standard sterile technicuies, then in- noculated with a 2% innoculum of a suspension of S. mutans GS-5 cells in phosphate buffer. These were then incubated at 37°C. Optical density was measured by Klett readings (red filter) at half hour intervals.
The first three columns in the table refer to effects of the compounds on the growth characteristics of a cariogenic strain of the bacteria Streptococcus mutans. Reduction of total growth (lowered final Klett), reduction of growth rate (increase in doubling time) and reduction of acid produced (increase in final pH) are the effects desired.

dextran-sucrase (DSU) = assay: Dextran-sucrase (DSU) activity of S. mutans; assay type: cell-based, Streptococcus mutans; settings: 0.7% concentration; for dextran-sucrase (DSU) activity: columns 4-8 of Table I
Excerpt: as §1
The next six columns refer to certain effects on the metabolism of the bacteria. Columns 4-8 represent measures of the activity of an enzyme (or group of enzymes) called dextran-sucrase (DSU) which is one of the principle sources of the cariogenicity of this organism. DSU converts dietary sugar into polymers which are a major ingredient of cariogenic dental plaque. Such plaque is an accumulation of these polymers, playing an essential role in caries formation and periodontal disease. Therefore, a reduction in plaque formation by means of a reduction'in DSU activity is a desired effect. In particular, a reduction in "mean specific DSU activity" - that is, amount of activity per bacterial cell - is desired since that would imply a real effect on the organisms' metabolism instead of merely a reduction in the number of cells. […] Erythritol, however, is the best in the critical measure "DSU mean specific activity (column 8). In column 9, lactic acid production is measured. Lactic acid, produced by cariogenic bacteria in response to ingestion of a meal, can increase acidity enough to dissolve tooth mineral and initiate caries. Therefore, reduction in lactic acid production is desirable. […] Finally, in the last column (10) are measures of the effect on the pH of natural saliva. In this case, the natural mixed population of bacteria is used instead of a pure culture of one strain as in the previous columns. A positive number (pH increase, corresponding to reduced acidity) is the desired result.

[2] = tested on: Streptococcus mutans strain GS-5; assay: Lactic acid production (Sigma kit, NADH absorbance); assay type: cell-based; settings: 0.7% concentration; relative to "no compound" control; column 9 of Table I
Procedure: as §1
Lactic acid production was measured using the Sigma Kit for determination of lactic acid. This procedure measures the amount of lactic acid by the following reaction: [drawing 1] NAD is originally present-in excess and the increase absorbance of […] due to NADH formation becomes a measure of lactic acid originally present.
(§2) The next six columns refer to certain effects on the metabolism of the bacteria. Columns 4-8 represent measures of the activity of an enzyme (or group of enzymes) called dextran-sucrase (DSU) which is one of the principle sources of the cariogenicity of this organism. DSU converts dietary sugar into polymers which are a major ingredient of cariogenic dental plaque. Such plaque is an accumulation of these polymers, playing an essential role in caries formation and periodontal disease. Therefore, a reduction in plaque formation by means of a reduction'in DSU activity is a desired effect. […] In column 9, lactic acid production is measured. […]

dental caries [3] = settings: compared with mannitol or sorbitol; cited from earlier work
dental caries [4] = settings: cited from earlier work
[5] = cited from earlier work
endogenous flora = assay: Salivary test system: pH change of pooled saliva; assay type: cell-based, human saliva; settings: final concentration 0.7%; anaerobic, 37°C, four hours; column 10 of Table I
Procedure: as §1
For the salivary test system, saliva was pooled from volunteers who had fasted three hours and the pH of the pooled saliva was noted. 4.95 ml of pool saliva was aseptically transferred to a series of sterile test tubes. […] of each compound were prepared and sterilized. 0.05 ml of each was aseptically added to the test tube of saliva to give a final concentration of 0.7%. The test tubes were incubated anaerobically ! at 37°C for four hours. The pH of each was then measured.
as §2, with “disease.” for “disease. Therefore, a reduction in plaque formation by means of a reduction'in DSU activity is a desired effect.”

dental caries [6] = settings: in diet, man; cited from earlier work
[7] = tested on: enzymes responsible for dental caries formation; settings: cited from earlier work
[8] = humans; cited from earlier work
[9] = cited from earlier work; remark: listed apart in the source

SMILES	growth characteristics: total growth (final Klett), growth rate (doubling time), acid produced (final pH) [1]	dextran-sucrase (DSU) activity (dextran-sucrase (DSU))	lactic acid production [2]	reducing the incidence of dental caries (dental caries [3])	drinking water intake (dental caries [4]; rats)	preventing dental caries (dental caries [4]; rats)	diarrhea ([5]; rats)	effect on the pH of natural saliva (endogenous flora)	incidence of dental caries (dental caries [6])	formation of enzymes responsible for dental caries formation [7]	drinking water intake (dental caries [4]; rat, in vivo)	diarrhea ([5]; rat, in vivo)	DSU mean specific activity (dextran-sucrase (DSU); activity per bacterial cell, column 8 of Table I)	metabolism after oral ingestion [8]	saturated solution in water [9]
OC[C@@H](O)[C@H](O)[C@@H](O)CO [xylitol]	best results	superior to the other substances tested	superior to the other test substances	appreciably more effective	increased drinking water intake	more effective than sorbitol	caused diarrhea	superior to the other test substances	dramatic reduction in the incidence of dental caries	retarded					
OC[C@@H](O)[C@@H](O)[C@H](O)[C@H](O)CO [mannitol]										retarded					
OC[C@@H](O)[C@@H](O)[C@H](O)[C@@H](O)CO [sorbitol]										retarded	increased drinking water intake	caused diarrhea			
OC[C@@H](O)[C@@H](O)CO [erythritol]	closely following	superior to the other substances tested	only substance which reduced lactic acid					best substance in the test					the best	not significantly metabolized	about 38 % w/w
